Values quoted from earlier work in patent publication US20090117559A1, “Methods for Determining Probability of an Adverse or Favorable Reaction to a Niacin Receptor Agonist” (priority 2005, published 2009).

Legend:
[1] = post administration of niacin by injection

- time after which the flushing reaction declines significantly [1]: about 30 minutes
- time at which the flushing reaction peaks [1]: about 3 minutes
- patients who cease taking niacin treatment within days after initiating therapy (human, in vivo): 30-40%
- subjects experiencing flushing in response to nicotinic acid therapy (unsegmented (general) population, Shepherd et al. 2005): 70-80%
Compound: O=C(O)c1cccnc1 [niacin, nicotinic acid]
